Patent US20170165254A1, “TREATING FLAVIVIRUS INFECTIONS WITH AMODIAQUINE AND DERIVATIVES THEREOF” (GEORGETOWN UNIVERSITY, priority 2014, published 2017)
Where two headings read alike, the source gives them in different places.

Experiments:
DENV2 replicon = experiment: microbe, parasite or virus in culture; assay type: cell-based, Dengue Virus 2 (DENV2)
WNV replicon = experiment: microbe, parasite or virus in culture; assay type: cell-based, West Nile virus (WNV); details: for % Replicon Inhibition (Means ± SEM) WNV: 50 μM in 1% DMSO; for % Replicon Inhibition (Means ± SEM) WNV / inhibition of WNV replicon replication (in words): Vero/WNV replicon cells; for EC50: read-out: WNV replicon EC50; for inhibition of WNV replicon replication (in words): FIG. 1B
BHK-21 cells = experiment: Cytotoxicity assay, BHK-21 cells; details: read-out: DENV replicon CC50; Table 2; unit inferred
Vero cells = experiment: Cytotoxicity assay, Vero cells; details: read-out: WNV replicon CC50; Table 2; unit inferred
DENV2 [1] = experiment: Inhibition of DENV2 infectivity in BHK-21 cells, plaque assay of supernatants; assay type: cell-based, Dengue Virus 2 (DENV2); details: for EC90: read-out: EC90 for inhibition of DENV2 infectivity (plaque assay)
Method: BHK-21 cells were seeded into 12-well plates (10^5 cells/well) and incubated overnight at 37° C. Cells were infected with DENV2 at a multiplicity of infection (MOI) of 0.01 or 1 as indicated. After infection, cells were washed with PBS and incubated with 1.5 mL of MEM supplemented with 2% FBS, 100 I.U./mL penicillin/100 μg/mL streptomycin (referred to as maintenance medium). AQ, at indicated concentrations, was added and cells were incubated at 37° C. for various time points as indicated. DMSO (1%), as a no-compound control (100% infection), and mock-infected control using medium alone (0% infection) were included. Supernatants were collected from the time point experiments and the virus titers determined by plaque assay.
(§1) BHK-21 cells were seeded at ˜10^5 cells/well (12-well plate) or ˜5×10^4 cells/well (24-well plate) and then incubated at 37° C. until reaching 90% confluence. Cells were infected with the supernatants collected from experiments of AQ treatments. Cells were washed with PBS, and incubated with 1.5 mL of overlay medium (maintenance medium containing 1% methylcellulose). The plates were incubated for 3-4 days at 37° C. under 5% CO2. After plaques became visually apparent by microscopy, cells were fixed and stained with 11.1% formaldehyde, 4.75% isopropanol, and 1% crystal violet for 30 minutes. The number of plaque forming units (PFU) per mL was determined.
BHK-21 cells were seeded as described above. AQ, at indicated concentrations in 1% DMSO, was added to DENV2 (MOI of 0.01 or 1)-infected cells during adsorption and/or post-infection. Supernatants were collected at indicated time points post-infection for plaque assays.

Rluc enzyme = target: T1, Rluc enzyme (Renilla reniformis, UniProt P27652); assay type: biochemical; details: added to BHK-21/DENV2 replicon cell lysate
T1 sequence (P27652 1-311): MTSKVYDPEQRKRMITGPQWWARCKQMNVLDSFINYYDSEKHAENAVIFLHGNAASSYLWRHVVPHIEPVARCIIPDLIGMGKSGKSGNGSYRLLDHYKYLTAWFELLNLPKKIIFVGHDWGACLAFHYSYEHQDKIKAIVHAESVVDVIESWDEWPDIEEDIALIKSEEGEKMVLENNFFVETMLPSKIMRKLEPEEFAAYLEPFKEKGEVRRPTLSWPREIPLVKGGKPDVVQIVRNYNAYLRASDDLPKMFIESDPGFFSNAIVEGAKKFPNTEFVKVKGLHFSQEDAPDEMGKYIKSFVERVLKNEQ

DENV2 [2] = experiment: DENV2 intracellular and extracellular RNA levels by qPCR in BHK-21 cells; assay type: cell-based, Dengue Virus 2 (DENV2); details: AQ 5 μM, 72 hours, p<0.001 vs untreated
DENV2 [3] = experiment: Time of addition assay; assay type: cell-based, Dengue Virus 2 (DENV2)
DENV2 [4] = experiment: Time-course analysis on DENV2 infectivity (indirect plaque assay); assay type: cell-based, Dengue Virus 2 (DENV2)
Method: as §1
BHK-21 cells were grown in 6-well plates (˜2.5×10^5 cells/well) and were infected with DENV2 at a MOI of 0.01 in the maintenance medium. Cells were washed with PBS and incubated with 3 mL of maintenance medium. AQ at indicated concentrations was added and cells were incubated at 37° C. Supernatants were sampled as indicated and stored at −70° C. for plaque assays.

DENV2 [5] = experiment: Direct plaque assay, AQ present only during adsorption (viral entry); assay type: cell-based, Dengue Virus 2 (DENV2)
DENV2 [6] = experiment: Order of addition assay; assay type: cell-based, Dengue Virus 2 (DENV2); details: AQ 5 μM added post-infection; 48 and 72 hours; MOI of 1

What does the source list for `CCN(CC)Cc1cc(Nc2c(C)cnc3cc(Cl)ccc23)ccc1O` [AQ derivative 1]?
% Replicon Inhibition (Means ± SEM) DENV2 (DENV2 replicon): 89.9 ± 10.6%; inhibition of DENV2 replicon replication (in words) (DENV2 replicon): strong inhibition; EC50 (DENV2 replicon; read-out: DENV replicon EC50): 21.1 ± 1.22 µM; % Replicon Inhibition (Means ± SEM) WNV (WNV replicon): 97.9 ± 0.5%; EC50 (WNV replicon; Table 2, unit inferred): 14.8 ± 0.48 µM; inhibition of WNV replicon replication (in words) (WNV replicon): strong inhibition

`CC[N+](C)(CC)Cc1cc(Nc2ccnc3cc(Cl)ccc23)ccc1O` [AQ derivative 2] was tested. Which “% Replicon Inhibition (Means ± SEM) DENV2” value (DENV2 replicon) did it give?
The value was 69.9 ± 3.4%.

What about the EC50 (DENV2 replicon; read-out: DENV replicon EC50) of the same compound?
Its EC50 is 29.7 ± 2.26 µM.

What about the “% Replicon Inhibition (Means ± SEM) WNV” value (WNV replicon) of the same compound?
Its value is 50.6 ± 4.4%.

And the EC50 (WNV replicon; Table 2, unit inferred)?
Its EC50 is 30.2 ± 6.05 µM.

Which results are given for `CCN(CC)Cc1cc(Nc2c(C3CCCC3)c(C)nc3cc(Cl)ccc23)ccc1O` [AQ derivative 4]?
% Replicon Inhibition (Means ± SEM) DENV2 (DENV2 replicon): 99.99 ± 0.0%; inhibition of DENV2 replicon replication (in words) (DENV2 replicon): strong inhibition; EC50 (DENV2 replicon; read-out: DENV replicon EC50): 15.4 ± 1.31 µM; % Replicon Inhibition (Means ± SEM) WNV (WNV replicon): 99.8 ± 0.01%; EC50 (WNV replicon; Table 2, unit inferred): 3.31 ± 0.73 µM; inhibition of WNV replicon replication (in words) (WNV replicon): strong inhibition

Which “% Replicon Inhibition (Means ± SEM) DENV2” value (DENV2 replicon) does the source give for `C=CN(C)Cc1cc(Nc2ccnc3cc(Cl)ccc23)ccc1O` [AQ derivative 6] here?
The value was 98.5 ± 1.3%.

What about the “inhibition of DENV2 replicon replication (in words)” value (DENV2 replicon) of the same compound?
The value was “strong inhibition”.

And the EC50 (DENV2 replicon; read-out: DENV replicon EC50)?
Its EC50 is 12.5 ± 2.19 µM.

What about the “% Replicon Inhibition (Means ± SEM) WNV” value (WNV replicon) of the same compound?
The value was 99.5 ± 0.1%.

And the EC50 (WNV replicon; Table 2, unit inferred)?
Its EC50 is 6.29 ± 0.52 µM.

What about the “inhibition of WNV replicon replication (in words)” value (WNV replicon) of the same compound?
Its value is “strong inhibition”.

And the CC50 (BHK-21 cells)?
Its CC50 is 16.4 ± 0.46 µM.

What about the CC50 (Vero cells) of the same compound?
Its CC50 is 18.2 ± 1.05 µM.

With `COc1ccc(Nc2ccnc3cc(Cl)ccc23)cc1CN(CCCl)C(C)CCl` (centres unmarked) [AQ derivative 7] as the compound, how does the “% Replicon Inhibition (Means ± SEM) DENV2” value (DENV2 replicon) read?
The value was 93.0 ± 2.6%.

And the “inhibition of DENV2 replicon replication (in words)” value (DENV2 replicon)?
The value was “strong inhibition”.

And the EC50 (DENV2 replicon; read-out: DENV replicon EC50)?
The EC50 was 19 ± 1.73 µM.

What about the “% Replicon Inhibition (Means ± SEM) WNV” value (WNV replicon) of the same compound?
The value was 97.7 ± 1.1%.

And the EC50 (WNV replicon; Table 2, unit inferred)?
The EC50 was 14.8 ± 1.14 µM.

What about the “inhibition of WNV replicon replication (in words)” value (WNV replicon) of the same compound?
Its value is “strong inhibition”.

And the CC50 (BHK-21 cells)?
The CC50 was 17.7 ± 1.96 µM.

What about the CC50 (Vero cells) of the same compound?
The CC50 was 34.8 ± 1.78 µM.

For `Oc1ccc(Nc2ccnc3cc(Cl)ccc23)cc1` [AQ derivative 8], which “% Replicon Inhibition (Means ± SEM) DENV2” value (DENV2 replicon) is on record?
The value was 3.9 ± 0.3%.

What about the “inhibition of DENV2 replicon replication (in words)” value (DENV2 replicon) of the same compound?
The value was “failed to inhibit replicon replication”.

And the EC50 (DENV2 replicon; read-out: DENV replicon EC50)?
Its EC50 is > 100 µM.

What about the EC50 (DENV2 replicon; read-out: EC50 values, BHK-21/DENV2 replicon cells) of the same compound?
Its EC50 is ~100 µM.

What about the “% Replicon Inhibition (Means ± SEM) WNV” value (WNV replicon) of the same compound?
The value was 57.2 ± 5.1%.

And the EC50 (WNV replicon; Table 2, unit inferred)?
The EC50 was > 100 µM.

And the CC50 (BHK-21 cells)?
The CC50 was > 100 µM.

And the CC50 (Vero cells)?
Its CC50 is > 100 µM.

And the EC90 (DENV2 [1]; MOI of 1, supernatants at 72 hours, BHK-21 cells)?
Its EC90 is 31.2 ± 5.15 µM.

`CCN(CC)Cc1cc(Nc2ccnc3cc(Cl)ccc23)ccc1O` [AQ, 4-[(7-chloroquinolin-4-yl)amino]-2(diethylaminomethyl)phenol] was tested. Which “interference with Rluc enzyme activity” value (Rluc enzyme) did it give?
Its value is “did not interfere”.

What about the “% Replicon Inhibition (Means ± SEM) DENV2” value (DENV2 replicon) of the same compound?
Its value is 76.3 ± 1.6%.

And the inhibition at 50 µM (DENV2 replicon; Dengue virus, DENV2, BHK-21, read-out: % Replicon Inhibition (Means ± SEM) DENV2)?
Its inhibition at 50 µM is 76.3 ± 1.6%.

What about the EC50 (DENV2 replicon; Dengue virus, DENV2, BHK-21, read-out: DENV replicon EC50) of the same compound?
Its EC50 is 10.8 ± 1.43 µM.

And the EC50 (DENV2 replicon; Dengue virus, DENV2, BHK-21, read-out: EC50 in BHK-21/DENV2 replicon cells)?
Its EC50 is 7.41 ± 1.09 µM.

And the inhibition at 50 µM (WNV replicon; West Nile virus, Vero, read-out: % Replicon Inhibition (Means ± SEM) WNV)?
Its inhibition at 50 µM is 96.3 ± 0.39%.

And the EC50 (WNV replicon; West Nile virus, Vero)?
Its EC50 is 14.6 ± 2.21 µM.

What about the “DENV2 replication, intracellular and extracellular RNA levels (qRT-PCR)” value (DENV2 [2]) of the same compound?
Its value is “effectively inhibited DENV2 replication”.

What about the CC50 (BHK-21 cells) of the same compound?
The CC50 was 80 ± 6.27 µM.

And the CC50 (Vero cells)?
The CC50 was 24.4 ± 2.49 µM.

And the plaque reduction (DENV2 [3]; AQ 5 μM added as late as 15 hours post-infection, supernatants at 72 hours, MOI of 1)?
The plaque reduction was ≥ 90%.

What about the “inhibitory effect when added late” value (DENV2 [3]; AQ 5 μM added at 21 hours post-infection and later) of the same compound?
The value was “lost its inhibitory effect”.

And the “inhibition of DENV2 infection when added early” value (DENV2 [3]; AQ 5 μM added up to 12 hours post-infection, supernatants at 48 hours)?
Its value is “inhibited DENV2 infection steadily”.

And the “inhibition of DENV2 infectivity, indirect plaque assay” value (DENV2 [4]; AQ 5 μM present during and up to 96 hours post-infection)?
The value was “significant inhibition”.

What about the plaque formation reduced (DENV2 [4]; AQ 5 μM, MOI of 0.01, added during adsorption and post-infection) of the same compound?
The plaque formation reduced was ≥ 90%.

And the “virus titers (PFU/mL) over time course” value (DENV2 [4]; AQ 1, 5, 10, 25 μM, MOI of 0.01, p<0.05)?
Its value is “reduced significantly in a dose-dependent manner”.

What about the “plaque titer versus DMSO control, direct plaque assay” value (DENV2 [5]; AQ 5 μM only during adsorption, MOI of 0.01) of the same compound?
Its value is “not significantly different”.

What about the “virus titer reduced, direct plaque assay” value (DENV2 [5]; AQ 10 μM during adsorption) of the same compound?
Its value is 69.23±1.57%.

And the “virus titer reduced, direct plaque assay” value (DENV2 [5]; AQ 25 μM during adsorption)?
Its value is 82.70±2.48%.

What about the “virus infectivity (PFU/mL of supernatant) by plaque assay” value (DENV2 [1]; AQ 5 μM, 72 hours, BHK-21 cells) of the same compound?
The value was “significant reduction”.

And the EC90 (DENV2 [1]; Dengue virus, DENV2, BHK-21, 96 h)?
Its EC90 is 2.71 ± 0.85 µM.

What about the EC50 (DENV2 [1]; Dengue virus, DENV2, MOI of 1, supernatants at 72 hours, BHK-21 cells, read-out: EC50 for inhibition of extracellular release of DENV2 (plaque assay)) of the same compound?
The EC50 was 1.08 ± 0.09 µM.

What about the EC90 (DENV2 [1]; Dengue virus, DENV2, MOI of 1, supernatants at 72 hours, BHK-21 cells) of the same compound?
The EC90 was 2.69 ± 0.4 µM.

What about the “reduction of plaque titer from DMSO control” value (DENV2 [6]) of the same compound?
Its value is ≥ 90%.
